Data on five molecules can be found in patent publication US20260041670A1, “DRUGS FOR PREVENTING AND/OR TREATING ALZHEIMER'S DISEASE” (SHENZHEN UNIVERSITY OF ADVANCED TECHNOLOGY, priority 2023, published 2026).

The conditions of data set [1]: cited from earlier work.
For the next data set, the target named is T1, TrkB (Homo sapiens, UniProt Q16620).
T1 construct: expressed in transfected cells; host or cells: human SH-SY5Y cells (BR6/Br6) and T48 cells
Nature of the data set: Pro-survival MTT assay after staurosporine-induced apoptosis in BR6 and T48 cells. The note with it: STS 100 nM, 24 h, in words, relative to CF3CN. It counts as cell-based. The method, then: FIG. 1b illustrates EC50 values of CF3CN and derivatives thereof. BR6 and T48 cells are treated with staurosporine (STS) (100 nM) and TrkB agonists. CF3CN and compounds #1-4 are added in a dose-dependent manner at concentrations of 0, 5, 10, 50, 100, 500, and 1,000 nM. After 24 h, an MTT assay is performed, and EC50 values are calculated using Prism software (n=3; data are represented by mean±standard deviation (SD)).
The pro-survival effects of four derivatives were quantitatively analyzed in human SH-SY5Y cells and T48 cells stably transfected with the TrkB. […] As PLCγ1 bound with a p-Y816 residue on the TrkB receptor and was subsequently tyrosine-phosphorylated by active TrkB, a tyrosine phosphorylation signal was also monitored in this example (FIG. 1c).
For orientation: Formazan colour is commonly taken as a measure of viable cells.

Data set [2] can be described thus: Stability in microsomes (human). The format is in vitro ADME.
Data set [3] can be described thus: Stability in plasma (mouse). The format is in vitro ADME. The note with it: for half-life: plasma, read-out: Stability-Plasma T1/2.
A short description of the next data set: Permeability PAMPA-BBB. The format is in vitro ADME. The note with it: for Papp: PAMPA, read-out: Permeability-PAMPA-BBB Pe.
A further data set can be described thus: Permeability Caco-2. Conditions: human, Caco-2; b-a. It counts as in vitro ADME. A general note: Caco-2 monolayers are a common model of the intestinal barrier.
The nature of data set [4]: Stability in hepatocytes (human). The format is in vitro ADME. The note with it: for hepatocyte CLint / half-life: hepatocytes; for hepatocyte CLint: read-out: Stability-Hepatocytes CL; for half-life: read-out: Stability-Hepatocytes T1/2.
Data set [5] in a line: Plasma protein binding (human). Conditions: plasma, read-out: Plasma Protein Binding Fu, plasma. The format is in vitro ADME.
A short description of data set [6]: Plasma protein binding (mouse). The format is in vitro ADME. Conditions: plasma, read-out: Plasma Protein Binding Fu, plasma.
A further data set can be described thus: Solubility (pH 7.4; PBS). The format is physicochemical.
A short description of data set [7]: Stability in hepatocytes (mouse). Conditions: for hepatocyte CLint / half-life: hepatocytes; for hepatocyte CLint: read-out: Stability-Hepatocytes CL; for half-life: read-out: Stability-Hepatocytes T1/2. It counts as in vitro ADME.
Another data set concerns the target hERG (Homo sapiens, UniProt Q12809). Nature of the data set: hERG inhibition.
Data set [8] is described as follows: Stability in plasma (human). The format is in vitro ADME. Conditions: for half-life: plasma, read-out: Stability-Plasma T1/2.
Data set [9] can be described thus: Stability in microsomes (mouse). It counts as in vitro ADME.
The test system of the next data set is Caco-2 cells. Nature of the data set: Permeability Caco-2. The format is in vitro ADME.
For data set [10], the system named is plasma proteins. Nature of the data set: Plasma protein binding (human). It counts as in vitro ADME.
Data set [11] has as its system plasma proteins. Nature of the data set: Plasma protein binding (mouse). It counts as in vitro ADME.
Data set [12] is described as follows: In vivo PK (plasma and brain, LC-MS/MS) in ICR mice. The note with it: Table 1; dose and route not stated there.

pIC50: −log10 of the molar value. Where two headings read alike, the source gives them in different places.

Sequence of hERG (Q12809 whole entry): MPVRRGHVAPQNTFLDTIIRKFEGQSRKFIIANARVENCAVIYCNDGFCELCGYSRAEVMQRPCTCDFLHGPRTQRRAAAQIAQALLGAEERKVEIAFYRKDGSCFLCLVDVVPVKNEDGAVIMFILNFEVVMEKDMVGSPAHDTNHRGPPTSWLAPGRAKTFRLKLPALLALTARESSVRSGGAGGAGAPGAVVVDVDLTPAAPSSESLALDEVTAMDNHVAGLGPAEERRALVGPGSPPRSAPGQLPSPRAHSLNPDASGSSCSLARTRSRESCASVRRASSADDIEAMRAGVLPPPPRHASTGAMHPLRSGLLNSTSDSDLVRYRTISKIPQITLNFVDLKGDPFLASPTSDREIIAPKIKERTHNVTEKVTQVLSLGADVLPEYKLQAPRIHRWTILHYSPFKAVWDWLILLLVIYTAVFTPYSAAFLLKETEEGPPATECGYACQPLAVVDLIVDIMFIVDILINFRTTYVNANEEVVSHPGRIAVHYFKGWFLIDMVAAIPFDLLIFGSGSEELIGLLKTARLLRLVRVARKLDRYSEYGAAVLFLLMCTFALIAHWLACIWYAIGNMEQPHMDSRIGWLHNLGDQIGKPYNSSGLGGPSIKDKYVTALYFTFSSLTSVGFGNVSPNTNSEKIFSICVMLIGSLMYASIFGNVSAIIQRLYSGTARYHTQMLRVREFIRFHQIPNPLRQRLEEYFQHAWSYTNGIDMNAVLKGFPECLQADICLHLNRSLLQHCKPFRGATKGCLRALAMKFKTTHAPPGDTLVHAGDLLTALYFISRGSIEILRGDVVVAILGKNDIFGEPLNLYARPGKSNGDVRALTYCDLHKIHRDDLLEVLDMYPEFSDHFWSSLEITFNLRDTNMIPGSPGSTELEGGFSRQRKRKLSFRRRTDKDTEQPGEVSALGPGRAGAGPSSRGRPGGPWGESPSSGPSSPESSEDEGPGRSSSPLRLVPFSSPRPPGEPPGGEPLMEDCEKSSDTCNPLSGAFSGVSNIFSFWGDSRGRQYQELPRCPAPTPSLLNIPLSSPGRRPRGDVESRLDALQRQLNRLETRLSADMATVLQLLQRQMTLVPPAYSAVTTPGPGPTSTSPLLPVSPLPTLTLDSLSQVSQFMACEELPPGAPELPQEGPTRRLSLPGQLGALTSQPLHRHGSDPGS
T1 sequence (Q16620 32-822, species assumed): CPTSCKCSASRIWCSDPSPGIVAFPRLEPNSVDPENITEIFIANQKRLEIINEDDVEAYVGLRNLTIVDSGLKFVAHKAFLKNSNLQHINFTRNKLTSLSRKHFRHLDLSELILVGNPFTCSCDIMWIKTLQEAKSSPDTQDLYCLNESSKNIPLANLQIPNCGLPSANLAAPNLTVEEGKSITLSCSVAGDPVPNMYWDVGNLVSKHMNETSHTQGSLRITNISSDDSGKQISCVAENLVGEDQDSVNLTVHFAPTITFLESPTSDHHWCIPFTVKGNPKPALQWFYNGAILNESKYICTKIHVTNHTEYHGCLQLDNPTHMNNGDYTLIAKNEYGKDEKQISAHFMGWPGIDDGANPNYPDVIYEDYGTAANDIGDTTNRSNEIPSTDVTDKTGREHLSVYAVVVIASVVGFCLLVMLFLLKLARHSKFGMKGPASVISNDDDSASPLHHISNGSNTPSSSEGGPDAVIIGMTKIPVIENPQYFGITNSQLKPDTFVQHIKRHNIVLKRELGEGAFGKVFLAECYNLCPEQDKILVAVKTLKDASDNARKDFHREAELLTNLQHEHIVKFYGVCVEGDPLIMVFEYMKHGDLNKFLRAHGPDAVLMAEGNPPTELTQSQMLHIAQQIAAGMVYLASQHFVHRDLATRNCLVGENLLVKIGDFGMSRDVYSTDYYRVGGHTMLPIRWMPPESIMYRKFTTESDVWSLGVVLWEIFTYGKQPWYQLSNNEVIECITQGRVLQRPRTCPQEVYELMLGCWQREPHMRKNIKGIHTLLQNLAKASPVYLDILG

As for `O=c1cc(-c2ccccc2)oc2c(O)c(O)ccc12` [7,8-DHF, 7,8-dihydroxyflavone], the oral bioavailability entry in data set [1] (earlier work on 7,8-DHF) is reported as “approximately 4.6%”.
Regarding `NCc1ccc(-c2cc(=O)c3ccc4nc(C(F)(F)F)[nH]c4c3o2)cc1` [#1], the “pro-survival EC50” value on TrkB is recorded as “excessively high”.
On to `CNC(=O)c1ccc(-c2cc(=O)c3ccc4nc(C(F)(F)F)[nH]c4c3o2)cc1` [#3], for which, in data set [2] (liver microsomes, read-out: Stability-Microsomes CL), the microsomal CLint turned out to be 1.03 µL/min/mg. The half-life in data set [2] (liver microsomes, read-out: Stability-Microsomes T1/2) was 22.5 h; in [3], over 8 h; in [4], over 8 h; in [7], over 8 h; in [8], over 8 h. For the same molecule, the Papp in the data set “Permeability PAMPA-BBB” was found to be 0.815 ×10⁻⁶ cm/s. Moreover, in the data set “Permeability Caco-2”, the Papp B→A (in general, how fast a substance crosses the layer from the basolateral side) stood at 28.7 ×10⁻⁶ cm/s. The hepatocyte CLint in data set [4] and in data set [7] was under 3 µL/min/1e6 cells each time. For the same molecule, the fraction unbound in data set [5] came out at 0.002; in data set [6], 0.005. Further, the solubility (as a rule, how much of the substance goes into solution per volume) in the data set “Solubility (pH 7.4; PBS)” (aqueous buffer) is over 100 µM. Moreover, the negative logarithm of the IC50 (pIC50) (commonly the negative decadic logarithm of the IC50, by convention in mol/L) at hERG was under 5.00.
As to `CN(C)C(=O)c1ccc(-c2cc(=O)c3ccc4nc(C(F)(F)F)[nH]c4c3o2)cc1` [#4], the half-life in data set [3], in [4], in [7] and in data set [8] was over 8 h in each case. In addition, in “Permeability PAMPA-BBB”, the Papp stood at 1.27 ×10⁻⁶ cm/s. In the data set “Permeability Caco-2”, this molecule came in with a Papp B→A of 45.9 ×10⁻⁶ cm/s. Moreover, the hepatocyte CLint in [4] and in [7] was under 3 µL/min/1e6 cells in each case. Besides, the fraction unbound was found to be 0.004 in data set [5] and 0.009 in data set [6]. The molecule further registered a solubility in the data set “Solubility (pH 7.4; PBS)” (aqueous buffer) of over 100 µM. On hERG, this molecule had a pIC50 of under 5.00. Also, the “pro-survival EC50” value on TrkB was “comparable”.
Turning to `N#Cc1ccc(-c2cc(=O)c3ccc4[nH]c(C(F)(F)F)nc4c3o2)cc1` [CF3CN, reference compound], the “Stability-Microsomes CL” value in data set [2] is on record as <12.8(human); μL/min/mg; in data set [9] it was <12.8(mouse) μL/min/mg. Further, the “Stability-Microsomes T1/2” value in data set [2] is listed as >180(human); min; in data set [9] it was >180(mouse) min. In addition, the “Stability-Plasma T1/2” value is reported as >480 (mouse); min in [3] and >480 (human) min in data set [8]. Moreover, the “Permeability-PAMPA-BBB Pe” value in “Permeability PAMPA-BBB” is listed as 3.09 10 cm/s. The “Caco-2 Efflux Ratio” value in the data set on Caco-2 cells is given as 3.6. Besides, the “Permeability-Caco-2 Papp (b-a)” value in the data set on Caco-2 cells (b-a) is 42.6 (b-a) 10 cm/s. Further, the “Stability-Hepatocytes T1/2” value was >480 (human) min in data set [4] and >480 (mouse); min in [7]. Besides, the “Plasma Protein Binding Fu, plasma” value with plasma proteins [10] is recorded as 0.101% (human);; in the data set on plasma proteins [11], 3.55% (mouse). Besides, the solubility in “Solubility (pH 7.4; PBS)” is over 200 µM. Further, in data set [1] (earlier work on CF3CN), the “B/P Ratio (Brain/Plasma Ratio)” value is listed as “approximately 1%”. In data set [12], this molecule showed a t1/2 of 2.994 ± 1.538 h. Also, the negative logarithm of the IC50 (pIC50) at hERG was under 4.60.
